According to article PMC7997411, “Discovery and Optimization of Selective Inhibitors of Meprin α (Part II)” (Pharmaceuticals, 2021):
Values joined by “and” are separate entries in the source; they are usually repeats but may differ in a detail not shown here. Identical values can stand only once. Like-named read-outs stand apart in the source and are kept apart here. Values belong to the molecule of their own block, whether it stands above or below them.

Tests used:
Meprin α [1] = conditions: cited from earlier work; for meprin α/β fold selectivity ratio: meprin α over meprin β ref 8
MMP2 = molecular target: T1, MMP2 (Homo sapiens, UniProt P08253); conditions: cited from earlier work
T1 construct: purchased R&D Systems 902-MP
T1 sequence (P08253 110-660): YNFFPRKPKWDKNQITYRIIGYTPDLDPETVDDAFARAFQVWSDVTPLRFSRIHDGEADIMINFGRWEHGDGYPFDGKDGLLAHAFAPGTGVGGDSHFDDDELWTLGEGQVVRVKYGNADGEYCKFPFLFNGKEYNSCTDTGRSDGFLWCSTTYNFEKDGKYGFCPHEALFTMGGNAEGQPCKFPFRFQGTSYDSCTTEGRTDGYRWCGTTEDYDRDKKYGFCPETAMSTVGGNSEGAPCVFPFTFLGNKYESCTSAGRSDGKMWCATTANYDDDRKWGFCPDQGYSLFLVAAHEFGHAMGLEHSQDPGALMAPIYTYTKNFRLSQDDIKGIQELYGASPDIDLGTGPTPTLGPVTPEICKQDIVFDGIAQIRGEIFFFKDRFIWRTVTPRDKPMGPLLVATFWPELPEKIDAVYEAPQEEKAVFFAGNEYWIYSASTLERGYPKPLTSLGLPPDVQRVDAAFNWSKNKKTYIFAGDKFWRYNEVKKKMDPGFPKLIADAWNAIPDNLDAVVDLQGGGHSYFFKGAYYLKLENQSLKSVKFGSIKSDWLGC

MMP13 = molecular target: T2, MMP13 (Homo sapiens, UniProt P45452); conditions: cited from earlier work
T2 construct: purchased R&D Systems 511-MM

Meprin β = conditions: cited from earlier work
ADAM17 = molecular target: T3, ADAM17 (Homo sapiens, UniProt P78536); conditions: cited from earlier work
T3 construct: purchased R&D Systems 930-ADB

ADAM10 = molecular target: T4, ADAM10 (Homo sapiens, UniProt O14672); conditions: cited from earlier work
T4 construct: purchased R&D Systems 936-AD
T4 sequence (O14672 214-748): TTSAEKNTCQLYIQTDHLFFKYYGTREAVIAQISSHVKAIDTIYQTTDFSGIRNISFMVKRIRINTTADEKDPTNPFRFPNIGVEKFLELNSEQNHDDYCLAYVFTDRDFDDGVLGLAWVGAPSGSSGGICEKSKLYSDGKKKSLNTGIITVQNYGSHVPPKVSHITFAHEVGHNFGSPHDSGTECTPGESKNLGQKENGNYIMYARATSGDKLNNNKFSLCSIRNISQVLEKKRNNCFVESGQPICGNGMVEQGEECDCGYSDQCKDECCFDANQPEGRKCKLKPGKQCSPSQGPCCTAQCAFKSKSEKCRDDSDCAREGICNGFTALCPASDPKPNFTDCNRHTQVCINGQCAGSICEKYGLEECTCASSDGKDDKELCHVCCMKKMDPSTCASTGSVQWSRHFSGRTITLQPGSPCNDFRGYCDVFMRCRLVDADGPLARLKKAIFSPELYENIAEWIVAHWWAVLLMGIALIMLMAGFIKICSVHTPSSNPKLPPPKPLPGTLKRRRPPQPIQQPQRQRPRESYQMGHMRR

MMP9 = molecular target: T5, MMP9 (Homo sapiens, UniProt P14780); conditions: cited from earlier work
T5 construct: purchased R&D Systems 911-MP

meprin α [2] = molecular target: T6, meprin α (Homo sapiens, UniProt Q16819); experiment: Meprin α assay in a 384-well plate (fluorogenic substrate Mca-YVADAPK-K(Dnp)); type: biochemical
T6 construct: Strep-tag; made in house; host or cells: BTI-TN-5B1-4 insect cells (baculovirus, amplified in Sf9)
T6 sequence (Q16819 66-746): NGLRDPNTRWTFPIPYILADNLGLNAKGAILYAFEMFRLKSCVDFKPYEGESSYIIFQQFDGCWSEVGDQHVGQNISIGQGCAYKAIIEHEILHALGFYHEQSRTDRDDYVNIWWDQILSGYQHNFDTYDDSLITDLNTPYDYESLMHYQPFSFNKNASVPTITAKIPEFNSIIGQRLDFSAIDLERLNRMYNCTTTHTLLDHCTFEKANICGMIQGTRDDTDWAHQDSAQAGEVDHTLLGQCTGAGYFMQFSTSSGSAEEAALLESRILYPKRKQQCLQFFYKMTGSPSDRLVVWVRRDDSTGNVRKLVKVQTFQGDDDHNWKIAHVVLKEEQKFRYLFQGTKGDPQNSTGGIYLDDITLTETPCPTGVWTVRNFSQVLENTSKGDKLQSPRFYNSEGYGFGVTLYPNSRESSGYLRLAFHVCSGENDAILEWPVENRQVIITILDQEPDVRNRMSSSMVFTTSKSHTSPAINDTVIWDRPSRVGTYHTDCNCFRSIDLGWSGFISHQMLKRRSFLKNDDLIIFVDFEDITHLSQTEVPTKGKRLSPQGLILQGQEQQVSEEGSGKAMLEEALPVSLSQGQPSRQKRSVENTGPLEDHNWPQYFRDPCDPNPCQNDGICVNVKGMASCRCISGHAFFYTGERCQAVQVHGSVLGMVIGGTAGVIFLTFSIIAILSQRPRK
Description: (§1) Recombinant human meprin α and meprin β were expressed using the Bac-to-Bac expression system (Gibco Life Technologies, Paisley, UK) as described before. Media and supplements were obtained from Gibco Life Technologies. Recombinant Baculoviruses were amplified in adherently growing Spodoptera frugiperda (Sf)9 insect cells at 27 °C in Grace’s insect medium supplemented with 10% fetal bovine serum, 50 units/mL penicillin, and 50 μg/mL streptomycin. Protein expression was performed in 500 mL suspension cultures of BTI-TN-5B1-4 insect cells growing in Express Five SFM supplemented with 4 mM glutamine, 50 units/mL penicillin, and 50 μg/mL streptomycin in Fernbach-flasks using a Multitron orbital shaker (INFORS AG, Bottmingen, Switzerland). Cells were infected at a density of 2 × 10^6 cells/mL with an amplified viral stock at a MOI of ~10. […] Meprins were activated by trypsin, which was removed afterwards by affinity chromatography using a column containing immobilized chicken ovomucoid, a trypsin inhibitor.
(§2) Both assays followed the same general protocol. […] After 30 min incubation at RT, the reactions were started by addition of 5 µL of 2× solutions of substrates (20 µM, meprin α Mca-YVADAPK-K(Dnp), and for meprin β Mca-EDEDED-K(Dnp)).

[3] = test system: MMP-2, MMP-3, MMP-8, MMP-9, MMP-10, MMP-14, ADAM10, and ADAM17; experiment: Selectivity panel of related metzincins; type: biochemical; conditions: meprin α vs MMP-2, MMP-3, MMP-8, MMP-9, MMP-10, MMP-14, ADAM10, ADAM17
Description: Both assays followed the same general protocol. 2.5 µL of 2× enzyme solution (20 nM) in assay buffer (10 mM HEPES, 0.001% Brij-35, pH 7.5) were added to solid bottom black 384 plates (Greiner, cat# 789075). Next, test compounds and pharmacological controls were added to corresponding wells using a 384-pin tool device (V&P Scientific, San Diego). After 30 min incubation at RT, the reactions were started by addition of 2.5 µL of 2× solutions of substrate (R&D Systems cat#: ES010, Mca-KPLGL-Dpa-AR-NH2, 20 µM). Reactions were incubated at RT for 2 h, after which the fluorescence was measured using a Perkin Elmer Viewlux multimode microplate imager (λexcitation = 324 nm, λemission = 393 nm). All compounds were tested in 10-point, 1:3 serial dilutions dose-response format starting with highest concentration of 100 µM. IC50 values were determined using non-linear regression analysis using the GraphPad Prism 8.0 suite of programs.
All assays followed the same general protocol. […] Reactions were incubated at RT for 1 h, after which the fluorescence was measured using the Synergy H4 multimode microplate reader (Biotek Instruments) (λexcitation = 324 nm, λemission = 390 nm). […] IC50 values were determined using non-linear regression analysis using the GraphPad Prism 8.0 suite of programs.

human meprin β = molecular target: T7, human meprin β (Homo sapiens, UniProt Q16820); experiment: Meprin β assay in a 384-well plate (fluorogenic substrate Mca-EDEDED-K(Dnp)); type: biochemical; conditions: triplicate, ± SD
T7 construct: His-tag; made in house; host or cells: BTI-TN-5B1-4 insect cells (baculovirus, amplified in Sf9)
T7 sequence (Q16820 62-701): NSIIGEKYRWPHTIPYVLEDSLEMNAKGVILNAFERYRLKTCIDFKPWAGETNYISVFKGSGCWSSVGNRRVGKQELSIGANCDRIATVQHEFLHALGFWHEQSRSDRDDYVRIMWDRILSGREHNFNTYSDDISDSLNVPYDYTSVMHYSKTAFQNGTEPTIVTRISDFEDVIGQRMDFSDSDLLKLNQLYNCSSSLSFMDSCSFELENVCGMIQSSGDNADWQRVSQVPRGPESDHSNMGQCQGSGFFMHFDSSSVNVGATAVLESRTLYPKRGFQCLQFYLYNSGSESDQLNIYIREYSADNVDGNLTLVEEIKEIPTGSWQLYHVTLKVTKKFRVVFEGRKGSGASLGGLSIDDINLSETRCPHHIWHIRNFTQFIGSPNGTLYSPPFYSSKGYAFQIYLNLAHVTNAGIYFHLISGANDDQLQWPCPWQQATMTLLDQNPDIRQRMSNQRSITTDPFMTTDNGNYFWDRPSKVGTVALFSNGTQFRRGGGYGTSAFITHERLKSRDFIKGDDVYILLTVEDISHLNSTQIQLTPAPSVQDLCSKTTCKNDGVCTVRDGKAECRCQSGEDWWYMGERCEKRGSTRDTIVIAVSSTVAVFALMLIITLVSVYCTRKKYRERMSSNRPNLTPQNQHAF
Description: as §1, §2

[4] = single value given, at 10 μM ref 11

T5 sequence (P14780 94-707): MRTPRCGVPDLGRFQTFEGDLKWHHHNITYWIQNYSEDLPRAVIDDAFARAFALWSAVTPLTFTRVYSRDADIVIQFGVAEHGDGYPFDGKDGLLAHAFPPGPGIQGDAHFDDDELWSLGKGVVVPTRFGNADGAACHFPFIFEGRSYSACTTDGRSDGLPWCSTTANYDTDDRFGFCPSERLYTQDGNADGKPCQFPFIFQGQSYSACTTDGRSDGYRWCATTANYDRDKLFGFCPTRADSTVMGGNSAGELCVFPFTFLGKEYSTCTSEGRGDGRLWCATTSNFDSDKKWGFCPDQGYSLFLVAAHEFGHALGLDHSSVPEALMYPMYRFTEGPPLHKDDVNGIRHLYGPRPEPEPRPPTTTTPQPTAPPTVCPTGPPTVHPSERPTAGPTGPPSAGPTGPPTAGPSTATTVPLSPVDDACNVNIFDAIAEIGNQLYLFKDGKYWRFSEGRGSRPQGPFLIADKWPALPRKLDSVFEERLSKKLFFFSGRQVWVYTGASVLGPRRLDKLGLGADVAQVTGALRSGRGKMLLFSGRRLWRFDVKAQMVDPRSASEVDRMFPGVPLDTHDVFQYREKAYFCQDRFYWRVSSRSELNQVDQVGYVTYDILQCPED
T3 sequence (P78536 215-824): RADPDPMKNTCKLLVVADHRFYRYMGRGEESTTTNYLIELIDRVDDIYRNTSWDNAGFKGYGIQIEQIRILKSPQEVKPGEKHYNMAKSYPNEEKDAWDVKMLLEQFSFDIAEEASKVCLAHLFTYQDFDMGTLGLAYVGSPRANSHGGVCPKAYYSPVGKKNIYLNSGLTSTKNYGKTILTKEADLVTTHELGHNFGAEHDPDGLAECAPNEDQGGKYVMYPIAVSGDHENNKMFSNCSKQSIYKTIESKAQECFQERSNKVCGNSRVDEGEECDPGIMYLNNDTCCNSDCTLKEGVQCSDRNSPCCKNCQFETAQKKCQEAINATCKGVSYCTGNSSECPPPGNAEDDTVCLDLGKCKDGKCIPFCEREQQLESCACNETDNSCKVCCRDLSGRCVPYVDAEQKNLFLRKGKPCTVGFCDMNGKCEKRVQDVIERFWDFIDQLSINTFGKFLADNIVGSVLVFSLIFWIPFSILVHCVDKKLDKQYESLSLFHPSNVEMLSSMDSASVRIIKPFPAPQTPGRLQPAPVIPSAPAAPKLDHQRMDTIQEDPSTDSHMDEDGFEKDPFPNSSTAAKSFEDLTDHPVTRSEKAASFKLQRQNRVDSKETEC

SMILES: O=C(Cc1c(-c2ccccc2)n[nH]c1-c1ccccc1)NO [2e]
- IC50 (Meprin α [1]): 3 ± 1 nM
- MMP2 % activity remaining (MMP2; [4]): 104%
- MMP13 % activity remaining (MMP13; [4]): 75%
- IC50 (Meprin β): 199 ± 1 nM
- ADAM17 % activity remaining (ADAM17; [4]): 61%
- ADAM10 % activity remaining (ADAM10; [4]): 73%
- MMP9 % activity remaining (MMP9; [4]): 81%

SMILES: O=C(CN(Cc1ccc2c(c1)OCO2)Cc1ccc2c(c1)OCO2)NO [10d]
- IC50 (Meprin α [1]): 160 ± 1 nM
- meprin α/β fold selectivity ratio (Meprin α [1]): 18 fold
- MMP2 % activity remaining (MMP2; at 10 μM (top) ref 8): 95%
- MMP2 % activity remaining (MMP2; at 200 μM (bottom) ref 8): 26%
- MMP13 % activity remaining (MMP13; at 10 μM (top) ref 8): 86%
- MMP13 % activity remaining (MMP13; at 200 μM (bottom) ref 8): 55%
- IC50 (Meprin β): 2950 ± 350 nM
- ADAM17 % activity remaining (ADAM17; at 10 μM (top) ref 8): 86%
- ADAM17 % activity remaining (ADAM17; at 200 μM (bottom) ref 8): 57%
- ADAM10 % activity remaining (ADAM10; at 10 μM (top) ref 8): 86%
- ADAM10 % activity remaining (ADAM10; at 200 μM (bottom) ref 8): 61%
- MMP9 % activity remaining (MMP9; at 10 μM (top) ref 8): 91%
- MMP9 % activity remaining (MMP9; at 200 μM (bottom) ref 8): 61%

SMILES: O=C(CN(Cc1ccc2c(c1)OCCO2)Cc1ccc2c(c1)OCCO2)NO [10e]
- IC50 (Meprin α [1]): 400 ± 30 nM
- meprin α/β fold selectivity ratio (Meprin α [1]): 19 fold
- MMP2 % activity remaining (MMP2; at 10 μM (top) ref 8): 94%
- MMP2 % activity remaining (MMP2; at 200 μM (bottom) ref 8): 65%
- MMP13 % activity remaining (MMP13; at 10 μM (top) ref 8): 98%
- MMP13 % activity remaining (MMP13; at 200 μM (bottom) ref 8): 47%
- IC50 (Meprin β): 7590 ± 10 nM
- ADAM17 % activity remaining (ADAM17; at 10 μM (top) ref 8): 80%
- ADAM17 % activity remaining (ADAM17; at 200 μM (bottom) ref 8): 41%
- ADAM10 % activity remaining (ADAM10; at 10 μM (top) ref 8): 80%
- ADAM10 % activity remaining (ADAM10; at 200 μM (bottom) ref 8): 56%
- MMP9 % activity remaining (MMP9; at 10 μM (top) ref 8): 91%
- MMP9 % activity remaining (MMP9; at 200 μM (bottom) ref 8): 21%

- meprin α/β selectivity (in words) (meprin α [2]; Figure 1): moderate meprin α/β selectivity
- meprin α/β fold selectivity (ratio of IC50 values) (meprin α [2]; meprin α over meprin β): ~ 13 fold and 13 fold
- IC50 (meprin α [2]; triplicate, ± SD): 1300 ± 100 nM
- Meprin α IC50 (meprin α [2]; triplicate, ± SD): low-micromolar
- IC50 (human meprin β): 17000 ± 3000 nM
SMILES: COc1ccc(-n2c(CSc3ncccn3)nnc2SCC(=O)NO)cc1 [SR19855, N-hydroxy-2-((4-(4-methoxyphenyl)-5-((pyrimidin-2-ylthio)methyl)-4H-1,2,4-triazol-3-yl)thio)acetamide]
- selectivity over a larger panel of metzincins [3]: at least 10 fold
